Results taken from paper PMC7071076, “Antibacterial Activity and Pharmacokinetic Profile of a Promising Antibacterial Agent: 22-(2-Amino-phenylsulfanyl)-22-Deoxypleuromutilin” (Molecules, 2020).
Where “and” joins values, the source holds several entries; their conditions need not be identical. Identical values can stand only once.

Legend:
[1] = Pharmacokinetic study in mice; format: in vivo; settings: for plasma concentration, individual mice: mice 1-8 in order
Experimental: Pharmacokinetic parameters of amphenmulin were measured according to previous reports with some modifications. Each group consisted of eight female SPF-ICR mice. Amphenmulin (1 mg/mL) was administered intravenously, intraperitoneally, and orally at a dose of 10 mg/kg, respectively. Formulation of amphenmulin was a filtered solution in 5% DMSO, 5% Tween-80, and 90% normal saline. Serial samples (each 0.2 mL) were collected from the ocular venous plexus and placed in a plastic centrifuge tube. The blood samples were placed at room temperature for 20 min and transferred to a 4 °C refrigerator for 12 h to promote blood coagulation. Then samples were centrifuged at 2000 r/min for 10 min to get serum. Serum samples were frozen at −20°C. 100 µL of samples was accurately absorbed and mixed with 100 µL of acetonitrile in a 1.5 mL centrifuge tube. The sample was mixed vigorously and centrifuged at 12,000 rpm for 10 min. The supernatant was transferred, filtered through a 0.22 μm cellulose membrane filter and used for LC-MS/MS analysis. Equipment and analysis conditions were shown in supplemental data. The pharmacokinetic parameters of amphenmulin were determined from the mean plasma concentration with noncompartmental analysis in WinNonlin 5.2 software (Pharsight, Mountain View, CA, USA). Data were shown as mean ± standard deviation (SD).

MRSA ATCC 43300 [2] = test: Postantibiotic effect (PAE); format: cell-based, Staphylococcus aureus
Experimental: The PAE was determined with previously methods. MRSA in logarithmic phase was diluted to 10^6 CFU/mL using MH broth as the inoculum. […] The group in which the drug was replaced by 0.9% saline was served as the control. All the samples were incubated at 37 °C for 1 and 2 h. At the end of incubation, the drug was removed by 1000-fold dilution with MH broth which was preheated at 37 °C. After well mixing, the broth was further cultured at 37 °C. 100 µL culture solution was extracted at different time intervals (0, 1, 2, 4, 6, and 8 h). Following a 10-fold dilution, colonies were counted after 20 h of incubation. The kinetic curve was established with the logarithm of the colony number as the ordinate and the time as the abscissa. The PAE was presented in hour and calculated by the equation PAE = TA − TC [40]. TA was defined as the culture time required for the number of MRSA to up to 1 log CFU/mL after the drug removal, and TC was the culture time required for the control group.

MRSA ATCC 43300 [3] = test: MRSA wound infection model: wound size; format: in vivo, mice; settings: after treatment for three days; 100 μL drug (3 mg/mL) on the wound
Experimental: Six weeks SPF-ICR female mice were used for this study. The Experimental model, inducted of inflammatory in mice by skin excision, was established referring to existing methods with some alterations. The mice were anesthetized with the intravenous injection of 1% sodium pentobarbital. After their hair on the back was shaved, the mice were anesthetized and the back skin was perforated with a biopsy perforator at a depth of fascia injury. The inoculum (50 μL), containing 10^9 CFU/mL of the indicated microorganism (MRSA ATCC 43300), was applied on the wound for three times at 30 min intervals. 100 μL drug (3 mg/mL) was administrated on the wound at 1 h after inoculation for three consecutive days. A total of 100 μL blank matrix was given to the infected control group and the non-infected group in the same way. The wound was wrapped with sterile gauze. During the treatment, all mice were kept individually and free to eat and drink.
The wounds were examined on day 1 and days 3 after treatment. The area of wound were measured according to previous reports with some modifications. In each group, six mice were taken out and anesthetized to take photos and measure the size of the wound as the results.

[4] = female, ICR, mouse, plasma, mice, 10 mg/kg, intravenous
[5] = female, ICR, mouse, plasma, mice, 10 mg/kg, oral

Compound C=C[C@]1(C)C[C@@H](OC(=O)CSc2ccccc2N)[C@]2(C)[C@H](C)CC[C@]3(CCC(=O)[C@H]32)[C@@H](C)[C@@H]1O [Amphenmulin, 22-(2-amino-phenylsulfanyl)-22-deoxypleuromutilin] has a concentration at 3 h ([1]; female, ICR, mouse, plasma, po, 10 mg/kg, mice, oral 10 mg/kg, 3 h, n = 8, read-out: plasma concentration, mean ± S.D) of 220 ± 150 ng/mL, a concentration at 4 h ([1]; female, ICR, mouse, plasma, po, 10 mg/kg, mice, oral 10 mg/kg, 4 h, n = 8, read-out: plasma concentration, mean ± S.D) of 150 ± 80 ng/mL and a concentration at 6 h ([1]; female, ICR, mouse, plasma, po, 10 mg/kg, mice, oral 10 mg/kg, 6 h, n = 8, read-out: plasma concentration, mean ± S.D) of 80 ± 30 ng/mL. The concentration at 8 h ([1]; female, ICR, mouse, plasma, po, 10 mg/kg, mice, oral 10 mg/kg, 8 h, n = 8, read-out: plasma concentration, mean ± S.D) was 50 ± 20 ng/mL, the concentration at 12 h ([1]; female, ICR, mouse, plasma, po, 10 mg/kg, mice, oral 10 mg/kg, 12 h, n = 8, read-out: plasma concentration, mean ± S.D) was 20 ± 10 ng/mL and the AUC(0-inf) [1, 4] was 12200 ± 1350 ng·h/mL. It also gave an MRT [1, 4] of 2.57 ± 0.19 h, a half-life [1, 4] of 115 ± 16.8 min and a Vd ([1]; female, ICR, mouse, plasma, mice, 10 mg/kg, intravenous, read-out: Vz) of 2.17 ± 0.42 L/kg. It also gave an AUC(0-inf) [1, 5] of 1670 ± 660 ng·h/mL, a Cmax [1, 5] of 530 ± 180 ng/mL and an MRT [1, 5] of 4.01 ± 0.62 h. For the same compound, the Tmax [1, 5] was 1.37 ± 0.74 h, the bioavailability [1, 5] was 13.7% and the half-life [1, 5] was 175 ± 48.6 min. The Vd/F ([1]; female, ICR, mouse, plasma, mice, 10 mg/kg, oral, read-out: Vz/F) was 28.5 ± 9.01 L/kg, the “plasma concentration, individual mice” value ([1]; intraperitoneal 10 mg/kg, 0.083 h) was 0.94 µg/mL and 0.70 µg/mL and 0.61 µg/mL and 0.48 µg/mL and 0.79 µg/mL and 1.48 µg/mL and 0.68 µg/mL and 1.14 µg/mL and the “plasma concentration, individual mice” value ([1]; intraperitoneal 10 mg/kg, 0.25 h) was 0.98 µg/mL and 1.39 µg/mL and 1.10 µg/mL and 0.89 µg/mL and 1.15 µg/mL and 2.26 µg/mL and 1.20 µg/mL and 0.78 µg/mL. The “plasma concentration, individual mice” value ([1]; intraperitoneal 10 mg/kg, 0.5 h) was 0.81 µg/mL and 1.39 µg/mL and 1.54 µg/mL and 0.58 µg/mL and 0.89 µg/mL and 1.48 µg/mL and 0.54 µg/mL and 0.61 µg/mL, the “plasma concentration, individual mice” value ([1]; intraperitoneal 10 mg/kg, 0.75 h) was 0.42 µg/mL and 0.40 µg/mL and the “plasma concentration, individual mice” value ([1]; intravenous 10 mg/kg, 0.083 h, 10 mg/kg) was 4.5 µg/mL and 3.97 µg/mL and 3.15 µg/mL and 4.2 µg/mL and 5.1 µg/mL and 3.25 µg/mL and 4.31 µg/mL. The “plasma concentration, individual mice” value ([1]; intravenous 10 mg/kg, 0.25 h, 10 mg/kg) was 3.07 µg/mL and 3.57 µg/mL and 3.78 µg/mL and 4.44 µg/mL and 3.64 µg/mL and 4.65 µg/mL and 4.18 µg/mL, the “plasma concentration, individual mice” value ([1]; intravenous 10 mg/kg, 0.5 h, 10 mg/kg) was 3.66 µg/mL and 3.82 µg/mL and 3.09 µg/mL and 3.18 µg/mL and 4.31 µg/mL and 3.98 µg/mL and 3.54 µg/mL and the “plasma concentration, individual mice” value ([1]; intravenous 10 mg/kg, 0.75 h, 10 mg/kg) was 3.46 µg/mL and 4.22 µg/mL and 3.49 µg/mL and 2.98 µg/mL and 4.21 µg/mL and 3.48 µg/mL and 2.31 µg/mL. The “plasma concentration, individual mice” value ([1]; intravenous 10 mg/kg, 1 h, 10 mg/kg) was 3.90 µg/mL and 3.62 µg/mL and 3.02 µg/mL and 2.02 µg/mL and 2.52 µg/mL and 2.95 µg/mL and 3.40 µg/mL and 4.09 µg/mL, the “plasma concentration, individual mice” value ([1]; intravenous 10 mg/kg, 2 h, 10 mg/kg) was 1.56 µg/mL and 1.41 µg/mL and 2.31 µg/mL and 2.00 µg/mL and 2.56 µg/mL and 2.83 µg/mL and 3.14 µg/mL and 2.61 µg/mL and the “plasma concentration, individual mice” value ([1]; intravenous 10 mg/kg, 4 h, 10 mg/kg) was 0.99 µg/mL and 1.32 µg/mL and 1.00 µg/mL and 1.10 µg/mL and 0.89 µg/mL and 0.79 µg/mL and 0.94 µg/mL. The “plasma concentration, individual mice” value ([1]; intravenous 10 mg/kg, 6 h, 10 mg/kg) was 0.31 µg/mL and 0.43 µg/mL and 0.54 µg/mL and 0.52 µg/mL and 0.29 µg/mL and 0.34 µg/mL and 0.44 µg/mL, the “plasma concentration, individual mice” value ([1]; intravenous 10 mg/kg, 8 h, 10 mg/kg) was 0.10 µg/mL and 0.16 µg/mL and 0.30 µg/mL and 0.24 µg/mL and 0.19 µg/mL and 0.12 µg/mL and 0.28 µg/mL and 0.32 µg/mL and the “plasma concentration, individual mice” value ([1]; intravenous 10 mg/kg, 12 h, 10 mg/kg) was 0.03 µg/mL (2×) and 0.05 µg/mL (3×) and 0.08 µg/mL and 0.04 µg/mL and 0.06 µg/mL. For the same compound, the CLβ/F ([1]; mice, 10 mg/kg, intraperitoneal) was 4.08 ± 1.14 L/h/kg, the CLβ ([1]; mice, 10 mg/kg, intravenous) was 0.82 ± 0.09 L/h/kg and the CLβ/F ([1]; mice, 10 mg/kg, oral) was 6.31 ± 2.26 L/h/kg. For the same compound, the PAE (MRSA ATCC 43300 [2]; 1× MIC, exposure for 1 h) was 0.71 h, the PAE (MRSA ATCC 43300 [2]; 1× MIC, exposure for 2 h) was 1.35 h and the PAE (MRSA ATCC 43300 [2]; 4× MIC, exposure for 1 h) was 1.78 h. The PAE (MRSA ATCC 43300 [2]; 4× MIC, exposure for 2 h) was 2.83 h and the wound area (MRSA ATCC 43300 [3]) was 0.47 ± 0.09 cm^2.
